# Patent US20090124634A1, “Novel dipodazine compounds and applications” (Viogard AB, priority 2005, published 2009)
# Marks after values point to notes of the source that are not given here.
# Key:
# M. edulis = experiment: Field experiment, paint-coated panels in sea water: recruitment of M. edulis; assay type: in vivo, Mytilus edulis
# Description: (§1) The effects of barettin and 8,9-Dihydrobarettin on B. improvisus recruitment was studied, by formulating different paints with different concentrations of the active substances.
# (§2) The paints were commercially available paints and the four different paints are listed below:
# Also, the effects of barettin and 8,9-dihydrobarettin on M. edulis recruitment were studied. When analyzing the data on the recruitment of M. edulis in the present field experiment, in a 3-factor analysis of variance with substance, paint and concentration as fixed factors, there was a significant interaction between the factors substance and paint. The main contribution to the significant interaction between the factors substance and paint is the result of barettin in combination with the SPF paint. […] However, the SNK-test could not reveal any significant differences between data.
# [1] = system: cyprids larvae of B. improvisus; conditions: B. improvisus cypris larvae, from ref [27], cited from earlier work; for EC50: read-out: EC50, inhibition of settlement of cypris larvae
# B. improvisus = experiment: Field experiment, paint-coated panels in sea water: recruitment/settlement of B. improvisus; assay type: in vivo, Balanus improvisus; conditions: for Reduction of recruitment (%): B. improvisus; for reduction of settlement of B. Improvisus: panels eight weeks in sea water, 0.2-1.5 m depth (FIG. 1)
# Description: as §1, §2
# One compound according to the present invention, benzo[g]dipodazine, which is the at present preferred compound, was formulated in a commercially available paint (SPF, from Lotréc, Lidingö, Sweden). The concentration of benzo[g]dipodazine in the paint was 0.1% and 0.01% based on the weight of the paint.
# The paint was coated on panels in the same way as described above in Example 1 (comparative example). A control panel was coated with the same paint without benzo[g]dipodazine. All panels were immersed in sea water at a depth of 0.2-1.5 m, and maintained in the water for eight weeks.
# [2] = system: cyprids larvae of B. improvisus; experiment: Larval settlement assay (barnacle cyprids in dishes), incl. reversibility test; assay type: in vivo, Balanus improvisus
# Experimental: Barnacle cyprids larvae of B. improvisus was reared in the laboratory as described in [2]. The settlement propensity and mortality of barnacle cyprids were used to evaluate the bioactive effect of barettin and analogues. Stock solutions of all compounds shown in FIG. 4 were prepared by dissolving the compounds in dimethylsulfoxide (DMSO). The stock solutions were further diluted in filtered seawater (FSW, Millipore 0.2 μm) to yield the desired concentrations of 1×10^−4, 1×10^−3 and 1×10^−2 mg ml^−1. The settlement assays were performed using Petri dishes of untreated polystyrene (Nunc no 240045, Ø 48 mm) containing 10 ml of FSW to which 20±5 cyprids were added. Cyprids were used on their first or second day after moulting. Each treatment with a specific analogue was replicated 4 times and dishes with FSW only or FSW containing DMSO (0.1%) served as controls. Dishes were maintained for 3-4 days at room temperature (21±2° C.) in the prevailing light:dark cycle of 9:15 h. The effects of the different analogues, classified as either neutral, stimulatory or inhibitory, on the cyprids, were determined by examining the dishes under a stereo microscope and checking for 1) attached and metamorphosed individuals, 2) non-metamorphosed, alive, non-attached cyprids and 3) dead cyprids. Each substance was tested at least in two independent experimental series. […]
# [3] = FabiEco paint, 0.01% in paint, listed as 8,9-dihydro-barettin
# [4] = FabiEco paint, 0.1% in paint, listed as 8,9-dihydro-barettin
# [5] = SPF paint, 0.01% in paint, 8-week period
# [6] = SPF paint, 0.1% in paint, 8-week period
# [7] = SPF paint, 0.01% in paint, vs control panels
# [8] = SPF paint, 0.1% in paint, vs control panels
SMILES,"Reduction of recruitment (%) (M. edulis; FabiEco paint, 0.01% in paint)","Reduction of recruitment (%) (M. edulis; FabiEco paint, 0.1% in paint)","Reduction of recruitment (%) (M. edulis; H2000 paint, 0.01% in paint)","Reduction of recruitment (%) (M. edulis; H2000 paint, 0.1% in paint)",Reduction of recruitment (%) (M. edulis; [5]),Reduction of recruitment (%) (M. edulis; [6]),"Reduction of recruitment (%) (M. edulis; TF paint, 0.01% in paint)","Reduction of recruitment (%) (M. edulis; TF paint, 0.1% in paint)",effect on larval mortality [1],EC50 [1],"Reduction of recruitment (%) (B. improvisus; FabiEco paint, 0.01% in paint)","Reduction of recruitment (%) (B. improvisus; FabiEco paint, 0.1% in paint)","Reduction of recruitment (%) (B. improvisus; H2000 paint, 0.01% in paint)","Reduction of recruitment (%) (B. improvisus; H2000 paint, 0.1% in paint)",Reduction of recruitment (%) (B. improvisus; [7]),Reduction of recruitment (%) (B. improvisus; [8]),"Reduction of recruitment (%) (B. improvisus; TF paint, 0.01% in paint)","Reduction of recruitment (%) (B. improvisus; TF paint, 0.1% in paint)",other results
"N=C(N)NCCC[C@@H]1NC(=O)[C@H](Cc2c[nH]c3cc(Br)ccc23)NC1=O [8,9-dihydrobarettin]",50%,67%,53%,39%,52%,72%,−28%,3.8%,none of the compounds displayed any significant effect on larval mortality,7.9 µM,59%,69%,46%,20%,43%,61%,−10%,−1%,"Reduction of recruitment (%) (M. edulis; [3]): 50* %; Reduction of recruitment (%) (M. edulis; [4]): 67** %; Reduction of recruitment (%) (M. edulis; H2000 paint, 0.01% in paint, listed as 8,9-dihydro-barettin): 53* %; Reduction of recruitment (%) (M. edulis; SPF paint, 0.1% in paint, 8-week period, listed as 8,9-dihydro-barettin): 72** %; Reduction of recruitment (%) (B. improvisus; [3]): 59* %; Reduction of recruitment (%) (B. improvisus; [4]): 69*** %; Reduction of recruitment (%) (B. improvisus; SPF paint, 0.1% in paint, vs control panels, listed as 8,9-dihydro-barettin): 61** %"
N=C(N)NCCC[C@@H]1NC(=O)/C(=C/c2c[nH]c3cc(Br)ccc23)NC1=O [barettin],51%,47%,26%,12%,83%,81%,51* %,6%,none of the compounds displayed any significant effect on larval mortality,0.9 µM,45%,49%,28%,23%,67%,89%,25%,17%,"Reduction of recruitment (%) (M. edulis; TF paint, 0.01% in paint, listed as Barettin): 51%"
O=C1CNC(=O)/C(=C/c2c[nH]c3c2ccc2ccccc23)N1 [benzo[g]dipodazine],–,–,–,–,–,–,–,–,–,–,–,–,–,–,–,–,–,–,"reduction of settlement of B. Improvisus (B. improvisus; SPF paint, 0.01% by weight of paint): about 73%; reduction of settlement of B. Improvisus (B. improvisus; SPF paint, 0.1% by weight of paint): about 85%; inhibition of settlement of cyprids ([2]; 34 μM in dishes (FIG. 2A)): complete inhibition; reversibility: ability of cyprids to settle again in fresh seawater after exposure ([2]; totally inhibited cyprids transferred to fresh sea water (FSW) (FIG. 2B)): regained this capability when transferred to fresh sea water"
"O=C1CNC(=O)C(=Cc2cc3ccccc3s2)N1 [compound 12, 3-[1-benzothiophen-2-yl-methylidene]-piperazine-2,5-dione]",–,–,–,–,–,–,–,–,–,–,–,–,–,–,–,–,–,–,melting point: 258 °C
